The experiment has as its system PPS cells obtained by differentiation induction from human iPS cells. The experiment in a line: Induction of FOXD1-positive renal interstitial progenitor cells (IPC) from PPS cells, flow cytometric analysis (FOXD1 and OSR1) on Day 11. Format: cell-based. To be noted: 5 days of treatment (Days 6 to 11) with the combination CHIR99021 1 μM, SB431542 10 μM and RA 100 nM; FIG. 3. The method, then: FIG. 3 is a diagram illustrating results of flow cytometric analysis (FOXD1 and OSR1), carried out on Day 11, of cells that were treated with various combinations of factors during the differentiation induction period of Days 6 to 11 (the period corresponding to “Screening” in FIG. 1). The following concentrations were employed: 1 μM CHIR99021 (CHIR), 10 μM SB431542 (SB), 100 nM retinoic acid (RA), 200 ng/mL FGF9, and 25 ng/mL Noggin.
FIG. 5 is a diagram illustrating results of flow cytometric analysis (FOXD1 and OSR1), carried out on Day 11, of cells that were treated or not treated with Smoothened Agonist (SAG) (concentration, 500 nM) during the differentiation induction period of Days 6 to 8. ** indicates p<0.01 (Student's t-test), and NS indicates “no significant difference”.
FIG. 6 is a diagram illustrating results of flow cytometric analysis (FOXD1 and OSR1), carried out on Day 11, of cells that were treated with various factors during the differentiation induction period of Days 6 to 8. The following concentrations were employed: 1 μM CHIR, 10% Wnt3a, 200 ng/mLRSPO1 (R-Spondin-1), 500 nM SAG, 10 ng/mL IL-1β, 50 ng/mL Estradiol, and 10 ng/mL TGFβ1.
Human iPS cells (hiPSCs) (17K6:OSR1-GFP/FOXD1-tdTomato double knock-in hiPSCs) were first subjected to enzyme treatment for 5 minutes using a 1:1 mixture of TrypLE Select Enzyme (Thermo Fisher Scientific) and 0.5 mM EDTA/PBS, and then washed with PBS(−). Thereafter, the cells were detached using a cell scraper, and then dissociated into single cells by gentle pipetting. One day before the start of differentiation, the cells were plated into a 24-well plate (CORNING) at a density of 1.3×10^4 cells/cm^2 together with 0.5 mL of Stem Fit AK02N (Ajinomoto Healthy Supply Co., Inc.) supplemented with 10 μM Y-27632 and 2.4 μL/mL iMatrix-511 (Matrixome). Twenty-four hours later (Day 0), 5 μM CHIR99021 (Wako), 10 nM RA (Sigma), 1 ng/mL BMP4 (Peprotech), and 100 ng/mL bFGF (Wako) were added to a serum-free differentiation medium comprising DMEM/F12 Glutamax (Thermo Fisher Scientific), B27 supplement minus vitamin A (Thermo Fisher Scientific), and 0.5× penicillin/streptomycin (hereinafter referred to as basal medium), and then culture was started. Twenty-four hours thereafter (Day 1), culture was performed with a basal medium supplemented with 5 μM CHIR99021, 100 ng/mL bFGF, and 1 ng/mL BMP7 (R&D Systems). On Day 2, the medium was switched to a basal medium supplemented with 5 μM CHIR99021, 1 ng/mL BMP7, and 10 μM A83-01 (Wako). On Day 3, the medium was switched to a basal medium supplemented with 5 μM CHIR99021, 30 ng/mL bFGF, 10 ng/mL activin A (R&D Systems), and 30 μM Y-27632 (Wako). On Day 4, the cells were washed with PBS(−), treated with Accumax (Innovative Cell Technologies), and then dissociated into single cells by gentle pipetting, followed by plating into a 24-well plate (CORNING) at a density of 1.05×10^5 cells/cm^2 (2D culture) or plating into a 96-well low-cell-adhesive plate (Thermo Fisher Scientific) at a density of 2.0×10^4 cells/cm^2 (3D culture). Culture was performed for 48 hours using a basal medium supplemented with 5 μM CHIR99021, 30 ng/mL bFGF, 10 ng/mL activin A, and 30 μM Y-27632 (in addition, 1.2 μL/well iMatrix-511 or a laminin-E8 fragment library in the case of 2D culture). By this, HOXC10- and CITED1-positive PPS cells were induced.
For the PPS cells on Day 6 of the culture protocol in FIG. 1, several differentiation induction conditions were tested by combining various factors. […]

As for `NC(=O)c1ccc(-c2nc(-c3ccc4c(c3)OCO4)c(-c3ccccn3)[nH]2)cc1` [SB431542], the “induction of FOXD1-positive cells” value is reported as “could be induced”.
